Consider 27 compounds from patent US7544694B2, “Substituted diaza-spiro-[5.5]-undecane derivatives and their use as neurokinin antagonists” (Janssen Pharmaceutica N.V., priority 2004, dated 2009).

SMILES strings stand for the structures.

What all share (format): cell-based
Test [1] has as its target NK1 (Homo sapiens, UniProt P25103). Nature of the test: Signal transduction (ST), intracellular Ca++ (FLIPR), functional NK1 antagonistic activity. The following applies: antagonist, read-out: NK1 pIC50 (converted). As to the method:
(§1) This test evaluates in vitro functional NK1 antagonistic activity. For the measurements of intracellular Ca^++ concentrations the cells were grown on 96-well (black wall/transparent bottom) plates from Costar for 2 days until they reached confluence. The cells were loaded with 2 μM Fluo3 in DMEM containing 0.1% BSA and 2.5 mM probenecid for 1 h at 37° C. They were washed 3× with a Krebs buffer (140 mM NaCl, 1 mM MgCl2×6H2O, 5 mM KCl, 10 mM glucose, 5 mM HEPES; 1.25 mM CaCl2; pH 7.4) containing 2.5 mM probenecid and 0.1% BSA (Ca^++-buffer). The cells were preincubated with a concentration range of antagonists for 20 min at RT and Ca^++-signals after addition of the agonists were measured in a Fluorescence Image Plate Reader (FLIPR from Molecular Devices, Crawley, England). The peak of the Ca^++-transient was considered as the relevant signal and the mean values of corresponding wells were analysed as described below.
(§2) The sigmoidal dose response curves were analysed by computerised curve-fitting, using the GraphPad Program. The EC50-value of a compound is the effective dose showing 50% of maximal effect. For mean curves the response to the agonist with the highest potency was normalised to 100%. For antagonist responses the IC50-value was calculated using non-linear regression.
(§3) The last columns indicate—without being limited thereto—for which action the compounds might be most suitable. Of course, since for some neurokinin receptors no data was determined, it is obvious that these compounds might be attributed to another suitable use.

The target in test [2] is T1, NK3 (Homo sapiens, UniProt P29371).
T1 sequence (P29371 1-465): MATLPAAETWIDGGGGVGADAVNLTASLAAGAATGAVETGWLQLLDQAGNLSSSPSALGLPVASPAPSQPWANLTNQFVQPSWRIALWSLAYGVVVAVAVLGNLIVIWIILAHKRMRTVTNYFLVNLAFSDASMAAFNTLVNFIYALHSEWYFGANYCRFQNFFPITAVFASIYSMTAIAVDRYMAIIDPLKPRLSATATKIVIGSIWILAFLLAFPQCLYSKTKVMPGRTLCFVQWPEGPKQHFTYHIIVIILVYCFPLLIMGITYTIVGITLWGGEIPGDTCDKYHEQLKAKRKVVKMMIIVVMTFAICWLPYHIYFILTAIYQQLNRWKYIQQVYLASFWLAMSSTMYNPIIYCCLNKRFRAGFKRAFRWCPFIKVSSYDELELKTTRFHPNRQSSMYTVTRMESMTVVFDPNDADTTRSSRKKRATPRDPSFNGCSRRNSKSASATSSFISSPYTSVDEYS
Nature of the test: Signal transduction (ST), intracellular Ca++ (FLIPR), NK3. The following applies: antagonist, read-out: NK3 pIC50 (converted). As to the method:
[The source words this procedure for another target and reports this target under the same test.] as §1, §2, §3

The target of test [3] is T2, NK2 (Homo sapiens, UniProt P21452).
T2 sequence (P21452 1-398): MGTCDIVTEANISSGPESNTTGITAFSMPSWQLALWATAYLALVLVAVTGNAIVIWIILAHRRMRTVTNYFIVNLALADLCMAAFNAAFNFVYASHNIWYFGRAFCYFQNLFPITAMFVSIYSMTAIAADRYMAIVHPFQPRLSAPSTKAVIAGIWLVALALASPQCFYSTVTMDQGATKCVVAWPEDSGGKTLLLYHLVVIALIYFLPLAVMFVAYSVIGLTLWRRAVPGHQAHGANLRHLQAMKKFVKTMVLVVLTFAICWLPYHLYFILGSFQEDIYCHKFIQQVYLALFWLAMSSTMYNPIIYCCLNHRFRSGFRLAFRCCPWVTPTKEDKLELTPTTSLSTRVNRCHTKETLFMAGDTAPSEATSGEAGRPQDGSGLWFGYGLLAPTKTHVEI
Nature of the test: Signal transduction (ST), intracellular Ca++ (FLIPR), NK2. The following applies: antagonist, read-out: NK2 pIC50 (converted). Here is the method: [The source words this procedure for another target and reports this target under the same test.] as §1, §2, §3

Chain of NK1 (P25103 whole entry): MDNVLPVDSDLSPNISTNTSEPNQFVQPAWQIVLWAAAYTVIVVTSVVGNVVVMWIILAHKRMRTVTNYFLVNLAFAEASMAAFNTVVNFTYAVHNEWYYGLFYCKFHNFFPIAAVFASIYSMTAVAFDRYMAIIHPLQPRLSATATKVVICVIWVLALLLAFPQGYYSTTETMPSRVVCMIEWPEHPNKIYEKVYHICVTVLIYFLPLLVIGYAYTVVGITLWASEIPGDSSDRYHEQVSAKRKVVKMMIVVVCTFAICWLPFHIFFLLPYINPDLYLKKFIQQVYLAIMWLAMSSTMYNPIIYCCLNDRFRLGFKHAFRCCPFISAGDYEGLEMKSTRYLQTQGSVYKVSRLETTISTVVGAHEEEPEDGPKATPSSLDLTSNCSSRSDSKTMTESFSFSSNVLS

For the compound `CC(C)(C)OC(=O)N1CCCC1C(=O)N1CCC2(CC1)CCN(C(=O)[C@H]1CCN(C(=O)c3cc(C(F)(F)F)cc(C(F)(F)F)c3)[C@H](Cc3ccccc3)C1)CC2` (stereo partly drawn) [Compound 188], the IC50 in test [1] is 0.0151 µM; in test [2], 3.72 µM; in test [3] it was 5.5 µM.

For the compound `O=C(c1ccncc1)N1CCC2(CC1)CCN([C@H]1CCN(C(=O)c3cc(C(F)(F)F)cc(C(F)(F)F)c3)[C@H](Cc3ccccc3)C1)CC2` [Compound 51], the IC50 was 0.0295 µM in test [1], over 10 µM in test [2] and 3.63 µM in test [3].

Regarding `CC(C)(C)C(=O)N1CCC2(CC1)CCN([C@H]1CCN(C(=O)c3cc(C(F)(F)F)cc(C(F)(F)F)c3)[C@H](Cc3ccccc3)C1)CC2` [Compound 7], the IC50 in test [1] is 0.115 µM; in test [2], over 10 µM; in test [3] it was over 10 µM.

In the case of `CC(C)(C)C1CCC(C(=O)N2CCC3(CC2)CCN([C@H]2CCN(C(=O)c4cc(C(F)(F)F)cc(C(F)(F)F)c4)[C@H](Cc4ccccc4)C2)CC3)CC1` (stereo partly drawn) [Compound 40], the IC50 in test [1] was 0.977 µM; in test [2], over 10 µM; in test [3], over 10 µM.

For `O=C(c1cc(C(F)(F)F)cc(C(F)(F)F)c1)N1CC[C@H](N2CCC3(CC2)CCN(S(=O)(=O)c2ccc(Br)s2)CC3)C[C@H]1Cc1ccccc1` [Compound 95], the IC50 in test [1] was 0.269 µM; in test [2] it was 2.34 µM; in test [3], 1.91 µM.

For the compound `O=C(c1cc(C(F)(F)F)cc(C(F)(F)F)c1)N1CC[C@H](N2CCC3(CC2)CCN(S(=O)(=O)c2cc(Br)c(Br)s2)CC3)C[C@H]1Cc1ccccc1` [Compound 98], the IC50 was 0.977 µM in test [1], over 10 µM in test [2] and over 10 µM in test [3].

For the compound `CC(C)S(=O)(=O)N1CCC2(CCN([C@H]3CCN(C(=O)c4cc(C(F)(F)F)cc(C(F)(F)F)c4)[C@H](Cc4ccccc4)C3)CC2)CC1` [Compound 167], the IC50 is 0.0562 µM in test [1], 1.95 µM in test [2] and 2.04 µM in test [3].

Regarding `O=C(Cc1ccc2c(c1)OCO2)N1CCC2(CC1)CCN([C@H]1CCN(C(=O)c3cc(C(F)(F)F)cc(C(F)(F)F)c3)[C@H](Cc3ccccc3)C1)CC2` [Compound 81], the IC50 is 0.115 µM in test [1], over 10 µM in test [2] and 5.25 µM in test [3].

In the case of `O=C(C1=COCCC1)N1CCC2(CC1)CCN([C@H]1CCN(C(=O)c3cc(C(F)(F)F)cc(C(F)(F)F)c3)[C@H](Cc3ccccc3)C1)CC2` [Compound 45], the IC50 in test [1] was 0.0794 µM; in test [2], over 10 µM; in test [3] it was 5.37 µM.

Take `O=C(C1CCOC1)N1CCCC2(CCCN(C3CCN(C(=O)c4cc(C(F)(F)F)cc(C(F)(F)F)c4)C(Cc4ccccc4)C3)C2)C1` (single isomer, unassigned) [Compound 210]: the results for the IC50 in test [1], in test [2] and in test [3] were 0.288 µM, 1.78 µM and 1.82 µM, respectively.

Turning to `O=C(C=Cc1ccco1)N1CCC2(CC1)CCN([C@H]1CCN(C(=O)c3cc(C(F)(F)F)cc(C(F)(F)F)c3)[C@H](Cc3ccccc3)C1)CC2` [Compound 84], the IC50 was 0.282 µM in test [1], over 10 µM in test [2] and 7.24 µM in test [3].

In the case of `O=C(CC1C=CCC1)N1CCC2(CC1)CCN([C@H]1CCN(C(=O)c3cc(C(F)(F)F)cc(C(F)(F)F)c3)[C@H](Cc3ccccc3)C1)CC2` (stereo partly drawn) [Compound 70], the values for the IC50 in test [1], in test [2] and in test [3] were 0.0813 µM, over 10 µM and 5.37 µM, respectively.

Turning to `O=C(c1cc(C(F)(F)F)cc(C(F)(F)F)c1)N1CC[C@H](N2CCC3(CC2)CCN(S(=O)(=O)C=Cc2ccccc2)CC3)C[C@H]1Cc1ccccc1` [Compound 128], the IC50 is 0.562 µM in test [1], over 10 µM in test [2] and 5.37 µM in test [3].

As for `Cc1occc1C(=O)N1CCC2(CC1)CCN([C@H]1CCN(C(=O)c3cc(C(F)(F)F)cc(C(F)(F)F)c3)[C@H](Cc3ccccc3)C1)CC2` [Compound 27], the IC50 is 0.0204 µM in test [1], 3.31 µM in test [2] and 4.47 µM in test [3].

With `O=C(c1ccoc1)N1CCC2(CC1)CCN([C@H]1CCN(C(=O)c3cc(C(F)(F)F)cc(C(F)(F)F)c3)[C@H](Cc3ccc(F)c(F)c3)C1)CC2` [Compound 140], the IC50 was 0.0234 µM in test [1], 2.45 µM in test [2] and 3.47 µM in test [3].

On to `CN1CCC=C(C(=O)N2CCC3(CC2)CCN([C@H]2CCN(C(=O)c4cc(C(F)(F)F)cc(C(F)(F)F)c4)[C@H](Cc4ccccc4)C2)CC3)C1` [Compound 48], for which the IC50 is 0.219 µM in test [1], over 10 µM in test [2] and over 10 µM in test [3].

For `O=C(c1ccc2c(c1)OCO2)N1CCC2(CC1)CCN([C@@H]1CCN(C(=O)c3cc(C(F)(F)F)cc(C(F)(F)F)c3)[C@H](Cc3ccccc3)C1)CC2` [Compound 63], the results for the IC50 in test [1], in test [2] and in test [3] were 0.437 µM, over 10 µM and 7.94 µM, respectively.

As to `O=C(C1CC1)N1CCCC2(CCCN([C@H]3CCN(C(=O)c4cc(C(F)(F)F)cc(C(F)(F)F)c4)[C@H](Cc4ccccc4)C3)C2)C1` (stereo partly drawn) [Compound 208], the IC50 was 0.347 µM in test [1], 4.27 µM in test [2] and 2.63 µM in test [3].

In the case of `O=C(c1cnccn1)N1CCC2(CC1)CCN([C@H]1CCN(C(=O)c3cc(C(F)(F)F)cc(C(F)(F)F)c3)[C@H](Cc3ccccc3)C1)CC2` [Compound 52], the IC50 was 0.0603 µM in test [1], over 10 µM in test [2] and 2.88 µM in test [3].

For `COc1cccc(CCC(=O)N2CCC3(CC2)CCN([C@H]2CCN(C(=O)c4cc(C(F)(F)F)cc(C(F)(F)F)c4)[C@H](Cc4ccccc4)C2)CC3)c1` [Compound 83], the IC50 is 0.0363 µM in test [1], 8.91 µM in test [2] and 2.57 µM in test [3].

In the case of `Cc1ccc(C(=O)N2CCC3(CC2)CCN([C@H]2CCN(C(=O)c4cc(C(F)(F)F)cc(C(F)(F)F)c4)[C@H](Cc4ccccc4)C2)CC3)s1` [Compound 30], the IC50 in test [1] was 0.692 µM; in test [2] it was over 10 µM; in test [3] it was 7.94 µM.

For `O=C(c1ccsc1)N1CCC2(CC1)CCN([C@H]1CCN(C(=O)c3cc(C(F)(F)F)cc(C(F)(F)F)c3)[C@H](Cc3ccc(F)c(F)c3)C1)CC2` [Compound 141], the figures for the IC50 in test [1], in test [2] and in test [3] were 0.0417 µM, 7.08 µM and 5.89 µM, respectively.

`O=C(c1ccsc1)N1CCCC2(CCN([C@H]3CCN(C(=O)c4cc(C(F)(F)F)cc(C(F)(F)F)c4)[C@H](Cc4ccccc4)C3)CC2)C1` [Compound 175]: the IC50 in test [1] was 0.0155 µM; in test [2], over 10 µM; in test [3] it was 4.47 µM.

As to `O=C1OC(CC(=O)N2CCC3(CC2)CCN([C@H]2CCN(C(=O)c4cc(C(F)(F)F)cc(C(F)(F)F)c4)[C@H](Cc4ccccc4)C2)CC3)c2ccccc21` (stereo partly drawn) [Compound 82], the IC50 is 0.0468 µM in test [1], 8.91 µM in test [2] and 2 µM in test [3].

Take `Cc1noc(C)c1S(=O)(=O)N1CCC2(CCN([C@H]3CCN(C(=O)c4cc(C(F)(F)F)cc(C(F)(F)F)c4)[C@H](Cc4ccccc4)C3)CC2)CC1` [Compound 101]: the IC50 in test [1] was 0.049 µM; in test [2], 6.03 µM; in test [3], 2 µM.

Take `O=C(c1cc(C(F)(F)F)cc(C(F)(F)F)c1)N1CC[C@H](N2CCC3(CC2)CCN(S(=O)(=O)c2c(Cl)cccc2Cl)CC3)C[C@H]1Cc1ccccc1` [Compound 111]: the IC50 in test [1] was 0.204 µM; in test [2], 5.37 µM; in test [3], about 0.229 µM.

`Cc1ccsc1C(=O)N1CCC2(CC1)CCN([C@H]1CCN(C(=O)c3cc(C(F)(F)F)cc(C(F)(F)F)c3)[C@H](Cc3ccccc3)C1)CC2` [Compound 32]: the results for the IC50 in test [1], in test [2] and in test [3] were 0.0759 µM, 6.61 µM and 3.16 µM, respectively.
